Measured values as given in patent US20220184222A1, “BICYCLE TOXIN CONJUGATES AND USES THEREOF” (BicycleTx Limited, priority 2019, published 2022).
Starred links: 1 amine or outer side, 2 acyl side, 3 side chain; linkers in the order of their positions; H or OH if unused. Non-standard residues stand in square brackets, D forms with d. Residues, ends and D or L forms follow the SMILES beside them. *: point of attachment. Dolaproine = CO[C@@H]([C@@H]1CCCN1)[C@@H](C)C(=O)O; Dil = CC[C@H](C)[C@H](NC)[C@@H](CC(=O)O)OC; PABC = O=C(OCc1ccc(N[*:1])cc1)[*:2]; X1 = O=C(CCCC(=O)*)ON1C(=O)CCC1=O; X2 = C[C@@H](N*)[C@@H](O)c1ccccc1; Cit = NC(=O)NCCC[C@H](N)C(=O)O; NMeV = CN[C@H](C(=O)O)C(C)C

Tests used:
CTG-2539 = assay: Champions TumorGraft NSCLC PDX efficacy, model CTG-2539; type: in vivo, Mus musculus
Experimental: Mice were implanted subcutaneously into the left flank with tumor fragments from one of the various models. […] Effects on tumor growth were evaluated by measuring percent tumor growth inhibition (% TGI), and the number of complete responders (CR), partial responders (PR), and tumor-free survivors (TFS). Tolerability was assessed by body weight loss, lethality, and clinical signs of adverse treatment-related side effects. Tumor volumes and body weights were measured twice a week.
[…] These dosing solutions were stored at −80° C. in the dark. On each day of dosing, a frozen aliquot of each test agent was thawed, stored at 2-8° C. and used for dosing.
(§1) The animals used in this study are described below: • Species: Mus musculus • Strain: Athymic Nude-Foxn1^nu (immune-compromised) • Source: Envigo (Indianapolis, Ind., USA) • Number of animals per group: 2 • Age and sex: At least 6-8 weeks of age at start of dosing, female • Weight: At least 18 grams at start of dosing • Acclimation period: 3 days
(§2) Stock mice were implanted with tumor cells from Champions TumorGraft® models CTG-0160, CTG-0170, CTG-0178, CTG-0192, CTG-0363, CTG-0808, CTG-0838, CTG-0848, CTG-1212, CTG-1502, CTG-1535, CTG-2011, CTG-2393, CTG-2539 or CTG-2540. After the tumors reached 1000-1500 mm^3, they were harvested and the tumor fragments (approximately 5×5×5 mm^3) were implanted SC in the left flank of the female study mice. Each animal was implanted with a specific passage lot and documented. Tumor growth was monitored twice a week using digital calipers and the tumor volume (TV) was calculated using the formula (0.52×[length×width^2]). When the TV reached an average volume of 150-300 mm^3, animals were matched by tumor size and assigned into Vehicle Control and treatment groups (n=2/group) and dosing was initiated on Day 0. After the initiation of dosing on Day 0, animals were weighed twice per week using a digital scale and TV was measured twice per week and also on the final day of study. The study was completed when the mean tumor volume of Vehicle Control reached 1500 mm^3 or up to Day 60, whichever occurred first.
(§3) Beginning on Day 0, animals were observed daily and weighed twice weekly using a digital scale; data including individual and mean gram weights, mean percent weight change versus Day 0 (% vD0) were recorded for each group and % vD0 plotted at study completion. […] Treatment resulting in a mean % vD0>20% and/or >10% mortality was considered above the maximum tolerated dose. Maximum mean % vD0 (weight nadir) for each treatment group was reported at study completion.
(§4) Inhibition of tumor growth was determined by calculating the percent TGI (100%×[1−(final MTV−initial MTV of a treated group)/(final MTV−initial MTV of the control group)]). Treatment started on Day 0.
(§5) Additional endpoints used to evaluate efficacy were: the number of complete responders (CR), partial responders (PR), and tumor-free survivors (TFS). PRs were considered exclusive of CRs, as were TFS.
(§6) Statistical analyses of anti-tumor efficacy were performed using one-way ANOVA followed by Dunnett's multiple comparisons test (GraphPad Prism version 8.2.0). Significant p-values=<0.05.
Animals were dosed according to the schedule on Table 7-1. The Vehicle Control reached endpoint on Day 21 and the BT5528 group reached endpoint on Day 18. The study was terminated on Day 25.

CTG-1502 = assay: Champions TumorGraft NSCLC PDX efficacy, model CTG-1502; type: in vivo, Mus musculus
Experimental: Mice were implanted subcutaneously into the left flank with tumor fragments from one of the various models. After tumors grew to an average of 150-300 mm^3, mice were treated by IV administration Q7Dx4 (n=2) with vehicle or 3 mg/kg of BT5528. Effects on tumor growth were evaluated by measuring percent tumor growth inhibition (% TGI), and the number of complete responders (CR), partial responders (PR), and tumor-free survivors (TFS). Tolerability was assessed by body weight loss, lethality, and clinical signs of adverse treatment-related side effects. Tumor volumes and body weights were measured twice a week.
Dosing solutions of BT5528 […] were pre-formulated. These dosing solutions were stored at −80° C. in the dark. On each day of dosing, a frozen aliquot of each test agent was thawed, stored at 2-8° C. and used for dosing.
as §1, §2, §3, §4, §5, §6
Animals were dosed according to the schedule on Table 7-1. The Vehicle Control reached endpoint on Day 17 and the study was terminated on Day 28.

[1] = CTG-2539, 3 mg/kg IV Q7Dx3, Day 0-25
[2] = CTG-1502, 3 mg/kg IV Q7Dx4, Day 0-28

Structure (SMILES): CC[C@H](C)[C@@H]([C@@H](CC(=O)N1CCC[C@H]1[C@H](OC)[C@@H](C)C(=O)N[C@H](C)[C@@H](O)c1ccccc1)OC)N(C)C(=O)[C@@H](NC(=O)[C@H](C(C)C)N(C)C(=O)OCc1ccc(NC(=O)[C@H](CCCNC(N)=O)NC(=O)[C@@H](NC(=O)CCCC(=O)ON2C(=O)CCC2=O)C(C)C)cc1)C(C)C [BT5528] (X1-V[Cit][PABC][NMeV]V[Dil][Dolaproine]-X2)
- MTV (mean tumor volume) (CTG-2539; 3 mg/kg IV Q7Dx3, Day 18): 2029±594 mm^3
- TGI (CTG-2539; 3 mg/kg IV Q7Dx3, Day 18): −51%
- # CR (complete responders) (CTG-2539; [1]): 0/0/0
- # PR (partial responders) (CTG-2539; [1]): 0/0/0
- # TFS (tumor-free survivors) (CTG-2539; [1]): 0/0/0
- % TGI (CTG-2539; CTG-2539, 3 mg/kg IV Q7Dx3, Day 18): −51%
- Day 18 Tumor Volume Mean TV ± SEM (CTG-2539; CTG-2539, BT5528 3 mg/kg IV Q7Dx3, Day 18, n=2): 2029 ± 594 mm^3
- MTV (mean tumor volume) (CTG-1502; 3 mg/kg IV Q7Dx4, Day 17): 976±229 mm^3
- TGI (CTG-1502; 3 mg/kg IV Q7Dx4, Day 17): 48%
- # CR (complete responders) (CTG-1502; [2]): 0/0/0
- # PR (partial responders) (CTG-1502; [2]): 0/0/0
- # TFS (tumor-free survivors) (CTG-1502; [2]): 0/0/0
- % TGI (CTG-1502; CTG-1502, 3 mg/kg IV Q7Dx4, Day 17): 48%
- Day 17 Tumor Volume Mean TV ± SEM (CTG-1502; CTG-1502, BT5528 3 mg/kg IV Q7Dx4, Day 17, n=2): 976 ± 229 mm^3
